Reference: PubChem BioAssay AID2060896 (Molecular Pharmacology Branch, DTP, NCI, 2025)
pIC50: −log10 of the molar value.

Test system: 941728-121-R-J1-PDC complex spheroid viability
Test: Anticancer human tumor 941728-121-R-J1-PDC patient-derived lung adenocarcinoma cell line growth inhibition [RAS]
Details: for pIC50: curve of first compound; for viability, T/C: stronger effect = lower value
Summary of the method: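 Agents were tested in combination matrices in half-log decrements from a top concentration at or near clinical Cmax (10 microM if undetermined). Targets were multi-cell spheroids of tumour lines plus HUVEC and MSC stromal cells.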

[1] = second compound 0.0316 µM, first compound 0.0316 µM
[2] = second compound 0.0316 µM, first compound 0.1 µM
[3] = second compound 0.0316 µM, first compound 0.316 µM
[4] = second compound 0.0316 µM, first compound 1 µM
[5] = second compound 0.1 µM, first compound 0.0316 µM
[6] = second compound 0.1 µM, first compound 0.1 µM
[7] = second compound 0.1 µM, first compound 0.316 µM
[8] = second compound 0.1 µM, first compound 1 µM
[9] = second compound 0.316 µM, first compound 0.0316 µM
[10] = second compound 0.316 µM, first compound 0.1 µM
[11] = second compound 0.316 µM, first compound 0.316 µM
[12] = second compound 0.316 µM, first compound 1 µM
[13] = second compound 1 µM, first compound 0.0316 µM
[14] = second compound 1 µM, first compound 0.1 µM
[15] = second compound 1 µM, first compound 0.316 µM
[16] = second compound 1 µM, first compound 1 µM
[17] = second compound 3.16 µM, first compound 0.0316 µM
[18] = second compound 3.16 µM, first compound 0.1 µM
[19] = second compound 3.16 µM, first compound 0.316 µM
[20] = second compound 3.16 µM, first compound 1 µM
[21] = second compound 10 µM, first compound 0.0316 µM
[22] = second compound 10 µM, first compound 0.1 µM
[23] = second compound 10 µM, first compound 0.316 µM
[24] = second compound 10 µM, first compound 1 µM
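Also: spheroids exposed to compounds for 7 days before readout.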
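For viability, T/C in this document: 100% = DMSO vehicle control viability.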

With `NC1c2ccccc2OC12CCN(c1cnc3c(N4CCCc5ncccc54)n[nH]c3n1)CC2` (centres undefined) + C#Cc1c(F)ccc2cc(O)cc(-c3ncc4c(N5CC6CCC(C5)N6)nc(OCC56CCCN5CC(F)C6)nc4c3F)c12 the pIC50 (second compound 0.0316 µM) was > 7.50, the pIC50 (second compound 0.1 µM) was > 7.50 and the pIC50 (second compound 0.316 µM) was > 7.50. For the same compound, the pIC50 (second compound 1 µM) was > 7.50, the pIC50 (second compound 3.16 µM) was > 7.50 and the pIC50 (second compound 10 µM) was > 7.50. It also gave a viability, T/C [1] of 37.8%, a viability, T/C [2] of 34.7% and a viability, T/C [3] of 30.6%. The viability, T/C [4] was 35.9%, the viability, T/C (second compound 0.0316 µM, first compound 3.16 µM) was 35.5% and the viability, T/C (second compound 0.0316 µM, first compound 10 µM) was 43%. The viability, T/C [5] was 34.8%, the viability, T/C [6] was 33% and the viability, T/C [7] was 31.6%. For the same compound, the viability, T/C [8] was 35.6%, the viability, T/C (second compound 0.1 µM, first compound 3.16 µM) was 34.2% and the viability, T/C (second compound 0.1 µM, first compound 10 µM) was 36.5%. It also gave a viability, T/C [9] of 30.3%, a viability, T/C [10] of 30.8% and a viability, T/C [11] of 32.8%. For the same compound, the viability, T/C [12] was 29.8%, the viability, T/C (second compound 0.316 µM, first compound 3.16 µM) was 32% and the viability, T/C (second compound 0.316 µM, first compound 10 µM) was 37%. The viability, T/C [13] was 28.5%, the viability, T/C [14] was 27.6% and the viability, T/C [15] was 31.4%. The viability, T/C [16] was 29.4%, the viability, T/C (second compound 1 µM, first compound 3.16 µM) was 28.8% and the viability, T/C (second compound 1 µM, first compound 10 µM) was 29.7%. It also gave a viability, T/C [17] of 24.1%, a viability, T/C [18] of 24% and a viability, T/C [19] of 24.4%. For the same compound, the viability, T/C [20] was 24.6%, the viability, T/C (second compound 3.16 µM, first compound 3.16 µM) was 23.4% and the viability, T/C (second compound 3.16 µM, first compound 10 µM) was 24.6%. It also gave a viability, T/C [21] of 20.9%, a viability, T/C [22] of 18.3% and a viability, T/C [23] of 19.3%. For the same compound, the viability, T/C [24] was 18.8%, the viability, T/C (second compound 10 µM, first compound 3.16 µM) was 17.8% and the viability, T/C (second compound 10 µM, first compound 10 µM) was 18.4%.
In the case of `Nc1ccn(C2OC(CO)C(O)C2(F)F)c(=O)n1` (centres undefined) + C#Cc1c(F)ccc2cc(O)cc(-c3ncc4c(N5CC6CCC(C5)N6)nc(OCC56CCCN5CC(F)C6)nc4c3F)c12, the pIC50 (second compound 0.0316 µM) was 7.65, the pIC50 (second compound 0.1 µM) was 7.81 and the pIC50 (second compound 0.316 µM) was 8.26. For the same compound, the pIC50 (second compound 1 µM) was > 8.50, the pIC50 (second compound 3.16 µM) was > 8.50 and the pIC50 (second compound 10 µM) was > 8.50. It also gave a viability, T/C (second compound 0.0316 µM, first compound 0.00316 µM) of 71.5%, a viability, T/C (second compound 0.0316 µM, first compound 0.01 µM) of 54% and a viability, T/C [1] of 49.6%. It also gave a viability, T/C [2] of 43.4%, a viability, T/C [3] of 46.3% and a viability, T/C [4] of 42.6%. The viability, T/C (second compound 0.1 µM, first compound 0.00316 µM) was 72.8%, the viability, T/C (second compound 0.1 µM, first compound 0.01 µM) was 55.1% and the viability, T/C [5] was 41.7%. For the same compound, the viability, T/C [6] was 38.3%, the viability, T/C [7] was 34.5% and the viability, T/C [8] was 38.2%. For the same compound, the viability, T/C (second compound 0.316 µM, first compound 0.00316 µM) was 51%, the viability, T/C (second compound 0.316 µM, first compound 0.01 µM) was 52.6% and the viability, T/C [9] was 38.3%. It also gave a viability, T/C [10] of 35.5%, a viability, T/C [11] of 37.6% and a viability, T/C [12] of 33.1%. The viability, T/C (second compound 1 µM, first compound 0.00316 µM) was 33.9%, the viability, T/C (second compound 1 µM, first compound 0.01 µM) was 31.9% and the viability, T/C [13] was 31.6%. For the same compound, the viability, T/C [14] was 33.2%, the viability, T/C [15] was 36.8% and the viability, T/C [16] was 30.3%. It also gave a viability, T/C (second compound 3.16 µM, first compound 0.00316 µM) of 30.4%, a viability, T/C (second compound 3.16 µM, first compound 0.01 µM) of 28.7% and a viability, T/C [17] of 28.5%. For the same compound, the viability, T/C [18] was 28.3%, the viability, T/C [19] was 26.1% and the viability, T/C [20] was 27.7%. The viability, T/C (second compound 10 µM, first compound 0.00316 µM) was 23.6%, the viability, T/C (second compound 10 µM, first compound 0.01 µM) was 21.3% and the viability, T/C [21] was 20.8%. It also gave a viability, T/C [22] of 18%, a viability, T/C [23] of 20.2% and a viability, T/C [24] of 20.1%.
